Read-outs that look alike come from different tables or passages of the source.
Columns and labels:
[1] = system: dox-induced cardiomyopathic mice; settings: for EF (Ejection fraction) / FS (Fractional shortening) / IVS; d / IVS; s / LVID; d / LVID; s / LVPW; d / LVPW; s: week 3, mean±SEM
Protocol: C57BL/6J male mice (6 to 8 weeks old) were injected intraperitoneally with triple dose of 5, 5, or 8 mg/kg doxorubicin-HCl (Sigma-Aldrich), respectively. In control group, the mice (n=6) were injected intraperitoneally with saline. 1 week after injection, the degree of heart failure was determined by the increase of S-T segment in electrocardiogram, and then the mice were randomly reclassified into the control group (Dox/Ctrl, n=9) and experimental group (Dox+Med) (FIG. 9). In the experimental group, the mice were fed a diet containing 10, 30, or 90 mg/kg/day medicarpin, respectively. Each experiment group consisted of 7 mice. After feedings, the mice were subjected to the rotarod endurance test, echocardiography and electrocardiogram.
The mice from all treatment groups were anaesthetized with isoflurane (0.75-1.5% inhalation); and echocardiographic measurements were taken in M-mode in triplicate for each mouse using an ATL HDI 5000 ultrasound system (Philips Medical Systems, ATL Ultrasound, Bothell, Wash., USA).

[2] = system: erythroid progenitor cells; test: Hemoglobin colorimetric assay of bone marrow cells (erythroid progenitor differentiation); type: cell-based, mouse; settings: low concentration (0.1 to 10 μg/mL), 96 hours, A610
Protocol: C57BL/6J male mice (6 weeks old) were used in this Example to collect bone marrow cells. The hind legs were of mice were obtained to remove excess flesh from the leg bone and cut off the ends of the bones. The bones were flushed with α-MEM medium using 23-gauge needle to elute bone marrow cells, and then filtrated by No. 53 nylon mesh filter to obtain the bone marrow cells solution.
96-well plates (U-bottom shape) were centrifuged at 1200 rpm (Kubota 6800) at 25° C. for 5 minutes. After centrifugation, the supernatant was removed and the bone marrow cells were mixed equally with 50 μL lysis buffer (0.01% NP-40) for 10 minutes. Then, 150 μL of 500 μM DAF (2,7-Diaminofluorene, Sigma-Aldrich) solution and 6 μL of 30% H2O2 were added and treated with the bone marrow cells for 5 minutes, and absorbance at 610 nm (A610) was determined. Student's t-test were used to compare data.

doxorubicin-induced mice = test: Treadmill endurance assessment under normoxic or hypoxic conditions; type: in vivo; settings: 3 weeks administration, normoxic and hypoxic (8% O2) conditions, dose-dependent
Protocol: Before being divided into treatment groups, 8 to 10 week-old C57B1/6J male mice were trained on a treadmill for a maximum of 10 min for each of three consecutive training sessions per day for 3 days. […] On the testing day, each mouse was subjected to three trials on the treadmill at under a normoxic or hypoxic (8% O2) atmosphere. The endurance performance was measured over time until the mice suffered from electric shock over 35 times/min (electric shock system is on the end of the treadmill). The maximum trial length was 60 min and there was a 30-min rest period between each trial. (Table 2)

[3] = system: cisplatin-induced nephropathic mice; test: Cisplatin-induced nephropathic mice model; type: in vivo
Protocol: C57BL/6J male mice (8 to 10 weeks old) were injected i.p. (Intraperitoneal) with three doses of cisplatin (CDDP) (Sigma-Aldrich), following the scheme of 7, 6 and 7 mg/kg body weight, at 1, 5, 10 day, and the normal group (n=6) was injected with saline. On day 12, serum samples were collected and assayed for blood urea nitrogen content (BUN). Mice with BUN values greater than 100 mg/100 mL were chosen for the experiment. […] The mice were (BUN=80-300 mg/dL) subsequently divided randomly into four cohorts comprising the control and three medicarpin-treated groups, medicarpin 10, 30, 90 mg/kg/day (CDDP+Med 10, CDDP+Med 30, CDDP+Med 90) (n=6 for each group) for an additional 2 weeks. Blood samples from all the mice were collected on day 12. The red blood cell (RBC) numbers were determined from the complete blood cell count using a Sysmex Kx-21 haematology analyser (Sysmex America Inc., Mundelein, Ill., USA), and the serum BUN levels were determined through the urease GLDH method using a commercial kit (DiaSys Diagnostic System GmbH, Frankfurt, Germany). The administration and blood collection schedules were carried out according to the FIG. 4. […] However, the number of RBC in control group without medicarpin treatment was still low. […] The number of WBCs was recovered in the mice after 2 week of medicarpin treatment. […] Similarly, the number of platelet (PLT) also was decreased by cisplatin. […] (FIG. 5D).
One month after treatment of medicarpin, the expression of EPO was increased in liver (FIG. 7A) and kidney (FIG. 7B) of mice.

(+)-Medicarpin
prolonged S-T interval ([1]; 90 mg/kg/day, one week after treatment, electrocardiogram): improved
ejection fractions and fractional shortening ([1]; 30 and 90 mg/kg, vs doxorubicin alone): significantly greater
EF (Ejection fraction) ([1]; Dox + Med10 (10 mg/kg/day)): 58.44 ± 2.55%
FS (Fractional shortening) ([1]; Dox + Med10 (10 mg/kg/day)): 30.32 ± 1.56%
IVS; d ([1]; Dox + Med10 (10 mg/kg/day)): 0.85 ± 0.03 mm
IVS; s ([1]; Dox + Med10 (10 mg/kg/day)): 1.20 ± 0.03 mm
LVID; d ([1]; Dox + Med10 (10 mg/kg/day)): 3.70 ± 0.34
LVID; s ([1]; Dox + Med10 (10 mg/kg/day)): 2.58 ± 0.27
LVPW; d ([1]; Dox + Med10 (10 mg/kg/day)): 0.69 ± 0.10
LVPW; s ([1]; Dox + Med10 (10 mg/kg/day)): 1.00 ± 0.07
EF (Ejection fraction) ([1]; Dox + Med30 (30 mg/kg/day)): 75.07 ± 2.29%
FS (Fractional shortening) ([1]; Dox + Med30 (30 mg/kg/day)): 43.04 ± 2.03 %
IVS; d ([1]; Dox + Med30 (30 mg/kg/day)): 0.81 ± 0.04 mm
IVS; s ([1]; Dox + Med30 (30 mg/kg/day)): 1.19 ± 0.02 mm
LVID; d ([1]; Dox + Med30 (30 mg/kg/day)): 3.33 ± 0.07
LVID; s ([1]; Dox + Med30 (30 mg/kg/day)): 1.89 ± 0.06
LVPW; d ([1]; Dox + Med30 (30 mg/kg/day)): 0.74 ± 0.04
LVPW; s ([1]; Dox + Med30 (30 mg/kg/day)): 1.26 ± 0.07
EF (Ejection fraction) ([1]; Dox + Med90 (90 mg/kg/day)): 72.92 ± 2.72%
FS (Fractional shortening) ([1]; Dox + Med90 (90 mg/kg/day)): 41.19 ± 2.07 %
IVS; d ([1]; Dox + Med90 (90 mg/kg/day)): 0.86 ± 0.05 mm
IVS; s ([1]; Dox + Med90 (90 mg/kg/day)): 1.29 ± 0.09 mm
LVID; d ([1]; Dox + Med90 (90 mg/kg/day)): 3.30 ± 0.11
LVID; s ([1]; Dox + Med90 (90 mg/kg/day)): 1.94 ± 0.12
LVPW; d ([1]; Dox + Med90 (90 mg/kg/day)): 0.77 ± 0.06
LVPW; s ([1]; Dox + Med90 (90 mg/kg/day)): 1.15 ± 0.08
expression of EPO in kidney and heart ([1]; doxorubicin-induced mice): recovered and increased
cardiomyocytes atrophy or hypertrophy, cytoplasmic vacuolization, myofibrillar loss, myocardial fibrosis (histology) ([1]; middle-high dosed treatment): significantly ameliorated
left ventricular posterior wall thickness (LVPWs) ([1]; middle-high doses): increased
influence to renal function ([1]; mouse, in vivo): no influence
heart rate (beats per second) ([1]; three weeks after treatment): recovered to normal
differentiation of erythroid progenitor cells [2]: enhanced
endurance performance to exhaustion (doxorubicin-induced mice): enhanced
BUN levels ([3]; 30 and 90 mg/kg treatment groups): significantly recovered
recovery of anaemia (RBC number) ([3]; 30 and 90 mg/kg, day 33): almost complete recovery
white blood cell (WBC) number ([3]; 30 and 90 mg/kg, week 3 to 4): significant recovery
renal function ([3]; 30 or 90 mg/kg): accelerated the recovery
amount of hemoglobin and number of functional RBC ([3]; high-middle dose): increased
renal function ([3]; low-dose 10 mg/kg): could not improve
HGF expression in liver ([3]; one month after treatment): increase
expression of EPO in liver and kidney ([3]; one month after treatment): increased
number of platelet (PLT) ([3]; vs CDDP/Ctrl group after its recovery from cisplatin): no significant difference
